Experimental data from patent US5593970A, “Heterocyclic anthracycline analogs” (priority 1994, dated 1997).
Structures can show the parent of a compound that is named as a salt. Where two headings read alike, the source gives them in different places.

Key:
Assay in all cases: Microculture tetrazolium assay
Type in all cases: cell-based
HT29 = system: HT29
LOX = settings: read-out: IC50
T47D = system: T47D
SKVLB = settings: for VLB/OV3: IC50 ratio SKVLB/SKOV3; for IC50: SKVLB
SKOV3 = settings: read-out: IC50
[1] = Homo sapiens, HT-29, HT29, read-out: IC50

IC50 (HT29; [1])	IC50 (LOX)	IC50 (SKVLB; read-out: IC50)	IC50 (SKOV3; Homo sapiens, SK-OV-3, SKOV3)	IC50 (T47D; Homo sapiens, read-out: IC50)	Molecule	IC50 (T47D; Homo sapiens)	VLB/OV3 (SKVLB)	IC50 (HT29; Homo sapiens, HT-29, HT29)	IC50 (HT29; HT29, read-out: IC50)	IC50 (T47D; read-out: IC50)	IC50 (SKOV3; SKOV3)	IC50 (SKVLB)
15.3 µM	18.5 µM	20.5 µM	21 µM	18.1 µM	CC(=O)OCC1(C2CC3=C(C(=O)c4cc5ccccc5c(O)c4C3=O)C(O[C@H]3C[C@H](NC(=O)C(F)(F)F)[C@H](O)[C@H](C)O3)O2)OCCCO1 (single isomer, unassigned) [BCH-747]	–	0.98	–	–	–	–	–
5.99 µM	10.1 µM	8.41 µM	4.9 µM	7.73 µM	CC(=O)OCC1(C2CC3=C(C(=O)c4c(cc5ccccc5c4O)C3=O)C(O[C@H]3C[C@H](NC(=O)C(F)(F)F)[C@H](O)[C@H](C)O3)O2)OCCCO1 (some centres unmarked) [BCH-748]	–	1.72	–	–	–	–	–
2.59 µM	2.41 µM	4.25 µM	0.573 µM	3.11 µM	COC(=O)[C@@H](N)COC1OC(C(C)=O)CC2=C1C(=O)c1cc3ccccc3c(O)c1C2=O (mixture of isomers) [BCH-1657, (1S,2'S,3R) and (1R, 2'S,3S)-Methyl-{6-hydroxyl-1[O-serinemethyl ester]-5,12-dioxo-3,4,5,12-tetrahydroanthraceno-[2,3-c]pyran-3-yl}ketone hydrochloride salt]	–	7.42	–	–	–	–	–
0.534 µM	0.105 µM	0.586 µM	0.0927 µM	0.501 µM	CC(=O)[C@@H]1Cc2c(O)c3c(c(O)c2[C@@H](O[C@@H]2O[C@@H](C)[C@@H](O)[C@@H](N)C2I)O1)C(=O)c1ccccc1C3=O (stereo partly drawn) [BCH-2066, (1'S,1R,3S)-Methyl-(5,12-dihydroxy-1-[2',3',6'-trideoxy-3'-amino-4'hydroxy-2'-iodo-L-lyxohexopyranose]-6,11-dioxo-3,4,6,11-tetrahydroanthraceno-[2,3C]-pyran-3-yl) ketone hydrochloride]	–	6.32	–	–	–	–	–
4.03 µM	10.9 µM	8.31 µM	5.25 µM	4.9 µM	CC(=O)OCC1(C2CC3=C(C(=O)c4c(cc5ccccc5c4OC(C)=O)C3=O)C(O[C@H]3C[C@H](NC(=O)C(F)(F)F)[C@H](O)[C@H](C)O3)O2)OCCCO1 (some centres unmarked) [BCH-1179]	–	1.58	–	–	–	–	–
0.024 µM	0.201 µM	1.09 µM	0.573 µM	0.174 µM	CCCCC[C@H]1Cc2c(O)c3c(c(O)c2[C@H](O[C@H]2C[C@H](N)[C@H](O)[C@H](C)O2)O1)C(=O)c1ccccc1C3=O [BCH-2088, (1'S,1S,3S)-5,12-mihydroxy-3-pentyl-1-(2',3',6'-trideoxy-3'-amino-L-lyxohexopyranose)-1,2,3,4-tetrahydro-(2-oxygen)-naphtacene-6,11-dione-hydrochloride]	–	1.90	–	–	–	–	–
11 µM	5 µM	14 µM	7.1 µM	7.1 µM	CC(=O)C1CC2=C(C(=O)c3cc4ccccc4c(O)c3C2=O)C(OCCNC(=O)OC(C)(C)C)S1 (centres unmarked) [BCH-1627]	–	2.0	–	–	–	–	–
66 µM	8.5 µM	31 µM	12 µM	18 µM	CC[C@@H]1CC2=C(C(=O)c3cc4ccccc4c(O)c3C2=O)[C@@H](O[C@H]2C[C@H](O)[C@H](O)[C@H](C)O2)O1 [BCH-1630]	–	2.6	–	–	–	–	–
> 100 µM	2.14 µM	14.7 µM	4.27 µM	6.79 µM	CC(=O)C1CC2=C(C(=O)c3cc4ccccc4c(O)c3C2=O)C(O[C@H]2C[C@H](NC(=O)C(F)(F)F)[C@H](OC(=O)c3ccc([N+](=O)[O-])cc3)[C@H](C)O2)O1 (mixture of isomers) [BCH-1122, (1S',1R,3S) and (1'S,1S,3R)-methyl (6-hydroxy-1-(2',3',6'-trideoxy-3'-trifluoroacetamido-4'-O-p-nitrobenzoyl-L-lyxohexopyranose)-6-hydroxy-5,12-dioxo-3,4,5,12-tetra-hydroanthraceno[2,3-C]pyran-3-yl) ketone]	–	3.44	–	–	–	–	–
6.25 µM	7.02 µM	11.5 µM	9.28 µM	12.6 µM	CC1(C2Cc3c(O)c4c(c(O)c3CO2)C(=O)c2ccccc2C4=O)OCCCO1 (centres unmarked) [BCH-1115]	–	1.24	–	–	–	–	–
0.64 µM	0.36 µM	1.7 µM	0.86 µM	1.4 µM	CCC1COC(OC2CC(N)C(O)C(C)O2)c2c(O)c3c(c(O)c21)C(=O)c1ccccc1C3=O [BCH-2086, (1'S,1R,4R)-5,12-Dihydroxy-4-ethyl-1-(2',3',6'-trideoxy-3'-amino-L-lyxohexopyranose)-1,2,3,4-tetrahydro-(2-oxygen)-naphthacene-6,11-dione-hydrochloride]	–	–	–	–	–	–	–
7.38 µM	12.8 µM	18.5 µM	24.8 µM	16.4 µM	COC(=O)[C@@H]1CC2=C(C(=O)c3c(cc4ccccc4c3O)C2=O)[C@@H](O)O1 (relative stereo) [BCH-703, Methyl(1,11-dihydroxy-5,12-dioxo-3,4,5,12-tetrahydroanthraceno[2,3-c]pyran-3-yl)formate]	–	0.75	–	–	–	–	–

Molecule	IC50 (HT29; [1])	IC50 (LOX)	IC50 (SKVLB; read-out: IC50)	IC50 (SKOV3; Homo sapiens, SK-OV-3, SKOV3)	IC50 (T47D; Homo sapiens, read-out: IC50)	IC50 (T47D; Homo sapiens)	VLB/OV3 (SKVLB)	IC50 (HT29; Homo sapiens, HT-29, HT29)	IC50 (HT29; HT29, read-out: IC50)	IC50 (T47D; read-out: IC50)	IC50 (SKOV3; SKOV3)	IC50 (SKVLB)
CC(=O)C1CC2=C(C(=O)c3cc4ccccc4c(O)c3C2=O)C(O[C@H]2C[C@H](NC(=O)C(F)(F)F)[C@@H](O)[C@H](C)O2)O1 (some centres unmarked) [BCH-1637]	0.691 µM	2.07 µM	3.82 µM	2.28 µM	–	5.24 µM	1.68	–	–	–	–	–
CC(=O)[C@H]1CC2=C(C(=O)c3cc4ccccc4c(O)c3C2=O)[C@H](O[C@H]2C[C@H](NC(=O)C(F)(F)F)[C@H](I)[C@H](C)O2)O1 [BCH-1618]	3.63 µM	3.75 µM	3.21 µM	3.26 µM	–	3.66 µM	.098	–	–	–	–	–
COCC1Cc2c(O)c3c(c(O)c2C(O[C@H]2C[C@H](N)[C@H](O)[C@H](C)O2)O1)C(=O)c1ccccc1C3=O (mixture of isomers) [BCH-1992, (1'S,1S,3R) and (1'S,1R,3S)-5,12-dihydroxy-3-methoxymethyl-1-(2',3',6'-trideoxy-3'-amino-L-lyxohexopyranose)-1,2,3,4-tetrahydro-(2-oxygen)naphthacene-6,11-dione hydrochloride]	–	0.666 µM	2.74 µM	0.57 µM	0.807 µM	–	4.81	0.183 µM	–	–	–	–
1S,3R-Methyl(1-[2',3',6'-trideoxy-3'-trifluoroacetamido-4'-hydroxy-1,5-dihydro-L-lyxohexopyranose-2-yl)-6,11-dioxo-3,4,5,12-tetrahydroanthraceno[2,3- c]pyran-3-yl)ketone [BCH-2156]	–	0.375 µM	5.36 µM	–	–	–	1.57	–	1.19 µM	2.71 µM	3.41 µM	–
CC(=O)[C@@H]1CC2=C(C(=O)c3cc4ccccc4c(O)c3C2=O)[C@@H](O[C@H]2C[C@H](NC(=O)C(F)(F)F)[C@H](I)[C@H](C)O2)O1 [BCH-1617]	1.2 µM	3.04 µM	2.96 µM	2.15 µM	2.43 µM	–	1.38	–	–	–	–	–
CC(=O)C1CC2=C(C(=O)c3cc4ccccc4c(O)c3C2=O)C(OC[C@@H](O)CO)O1 (some centres unmarked) [BCH-2034]	2.05 µM	1.43 µM	–	2.95 µM	7.87 µM	–	2.54	–	–	–	–	7.49 µM
